From patent publication US20230285357A1, “COMPOSITIONS AND METHODS FOR […] CELLS” (The Regents of the University of California, priority 2020, published 2023)

Tests used:
[1] = test system: promoter region of Smad1 gene; assay: ChIP assay of β-catenin DNA-binding and histone modification in promoter of Smad1 gene; type: cell-based, mouse
Excerpt: The expression of transcription factors that are known to be involved in bone formation or vascular development were screened. […] To determine if excess β-catenin affected SMAD1 expression, β-catenin in SB216763-treated osteoblasts was depleted by using siRNA. […] DNA-binding sites of β-catenin by locating the binding motifs in Smad1 gene was explored, and identified four individual sites located at −196 bp, −1454 bp, −2805 bp and −4729 bp upstream of exon1 of Smad1 gene (FIG. 3, Part D). […] Then, transcriptional status of Smad1 was determined by examining the histone modification, including trimethylated histone H3 lysine 4 (H3K4me3) associated with active transcription and H3K27me3 a closed chromatin mark.
βChIP assays were performed as previously described. Specific antibodies for β-catenin were used (R&D System, MAB2006), H3k4me3 (Abcam, ab8580) and H3k27me3 (Abcam, ab6002). The primers for the real-time PCR: 5′GAAAATAACACAGGCTTTG3′ (SEQ ID NO: 13) and 5′ GCTCCCCGAGCCTGGATT 3′ (SEQ ID NO: 14); 5′ GGACAGAGGCTCTCATTCC 3′ (SEQ ID NO: 15) and 5′[…]3′ (SEQ ID NO: 16) and 5′[…]3′ (SEQ ID NO: 17) 5′[…]3′ (SEQ ID NO: 18); 5′[…]3′ (SEQ ID NO: 19) and 5′[…]3′ (SEQ ID NO: 20).

[2] = test system: vascular calcification in Mgp−/− mice; assay: Early vascular calcification in Mgp−/− mice; type: in vivo, mouse; settings: Mgp−/− mice at 2 weeks of age, 5 ug/g daily for 2 weeks
Experimental: To examine whether SB216763 could be used for treatment of vascular calcification, the Mgp^−/− mouse was chosen, a well-known model of calcification. Mgp^−/− mice develop arterial calcification as early as postnatal day 14. At 4 weeks of age, the entire arterial vasculature is severely calcified. Two independent experiments were performed to test if SB216763 decreased calcification in Mgp^−/− mice. First, young Mgp^−/− mice at 2 weeks of age with SB216763 were treated (5 ug/g daily) for 2 weeks to determine if SB216763 prevented osteogenesis in the Mgp^−/− aortas (FIG. 5, Part A).
Mgp^+/− (B6.129S7-Mgptm1Kry/KbosJ), Col1α1^CreERT2 (B6.Cg-Tg(Col1α1-cre/ERT2)1Crm/J), GSK3β^flox/flox (B6.129(Cg)-Gsk3btm2Jrw/J) and Osx-Gfptg (B6.Cg-Tg(Sp7-tTA,tetO-EGFP/cre)1Amc/J) mice on C57BL/6J background were purchased from the Jackson Laboratory. Genotypes were confirmed by PCR, and experiments were performed with generation F4-F6. Littermates were used as wild type controls. All mice were fed a standard chow diet. The studies were reviewed and approved by the Institutional Review Board and conducted in accordance with the animal care guidelines set by the University of California, Los Angeles (UCLA). The investigation conformed to the National Research Council, Guide for the Care and Use of Laboratory Animals, Eighth Edition (Washington, D.C.: The National Academies Press, 2011).

[3] = test system: GFP+CD31+ aortic cells; assay: Bone formation assay in vivo with GFP+CD31+ aortic cells of treated mice; set-up: species or system mouse
Experimental: Then, mice were treated with or without SB216763 for 2 weeks. […] Then, the alteration of GFP and CD31 double positive cells (GFP+CD31+) were characterized after SB216763 treatment. […] Same numbers of cells of each group were used to perform a transplantation experiment to examine the capacity of bone formation by using bone formation assay in vivo.

[4] = test system: GFP+CD31+ aortic cells; assay: Hindlimb ischemia model with GFP+CD31+ aortic cells of treated mice; type: in vivo, mouse; settings: mice transplanted with GFP+CD31+ aortic cells of treated group
Experimental: The capacity of GFP+CD31+ aortic cells for vascular repair was examined by using hindlimb ischemia model. […] The murine model of hindlimb ischemia was performed as previously described. A 10 mm long incision of the skin was made towards the medial thigh. The femoral artery was exposed and separated from femoral vein and nerve. Silk sutures were used to tie the proximal and the distal end of femoral artery with double knots. The cells (5×10^5) were transplanted into the surgical area and the incision was closed. Laser Doppler perfusion imaging was used to monitor the blood flow at different time points. Histology and immunostaining were used to examine the vascularization 2 weeks after transplantation.

[5] = test system: bone tissue of wild type mice; assay: Effect of long treatment on bone formation in wild type mice; type: in vivo, mouse; settings: wild type mice at 8 weeks of age, 5 ug/g daily for 8 weeks
Experimental: To determine if long-treatment of SB216763 has any effects on bone formation, wild type mice were treated at 8 weeks of age with SB216763 (5 ug/g daily) for 8 weeks. After treatment, the bone tissue was examined by micro-CT imaging and immunostaining.
MicroCT imaging was performed at the Crump Imaging Center at UCLA. All the samples were scanned on a high-resolution, volumetric microCT scanner (CT125). The image data were acquired with the following parameters: 10 μm isotropic voxel resolution; 200 ms exposure time; 2,000 views and 5 frames per view. The microCT-generated DICOM files were used to analyze the samples and to create volume renderings of the regions of interest. The raw data files were viewed using the MicroView 3-D volume viewer and analysis tool (GE Healthcare) and AltaViewer™ Software. Additionally, images of the samples were generated using SCIRun (Scientific Computing and Imaging Institute).

Cn1cc(C2=C(c3ccc(Cl)cc3Cl)C(=O)NC2=O)c2ccccc21 [SB216763]
histone modification H3K4me3 and H3K27me3 around β-catenin binding sites in Smad1 promoter ([1]; treated osteoblasts): lower abundance of H3K4me3 with higher abundance H3K27me3 | β-catenin abundance around binding sites upstream of exon1 of Smad1 gene ([1]; treated osteoblasts vs non-treated controls): more abundance of β-catenin | CD31+ aortic cells co-expressing VE-cadherin and osterix, FACS [2]: decreased number of cells that co-expressed VE-cadherin and osterix | CD31+ aortic cells expressing only VE-cadherin, FACS [2]: increased number of cells that only expressed VE-cadherin | aortic mineralization, von Kossa staining [2]: dramatic decrease in aortic mineralization | immunoblotting of aortic tissues [2]: decreased Cbfa1 and osterix, increased von Willebrand factor (vWF) and VE-cadherin and altered SMAD1 and β-catenin | total aortic calcium [2]: decrease in calcium deposition | osteocytes in implants, histology ([3]; implants with GFP+CD31+ aortic cells of treated group): lack of osteocytes | ectopic bone by Micro-CT ([3]; implants with GFP+CD31+ aortic cells of treated group vs controls): smaller size of ectopic bone, less trabecular formation and less bone volume | limb blood flow, Laser Doppler perfusion imaging [4]: higher limb blood flow | vascular density, histology [4]: increase in vascular density | hemorrhage in the bone tissue [5]: had not detected any hemorrhage | microstructure of bone tissues and vasculature, immunostaining of CD31 and osterix [5]: no changes in the microstructure of bone tissues and vasculature | relative bone volumes and connectivity densities, micro-CT ([5]; treated vs non-treated): no differences
